In the NIST ThermoML archive (doi:10.1016/j.fluid.2005.10.023):
Numbers after ± are expanded uncertainties.

Assay: xn = mol fraction of the nth substance listed
Details: Gas, Other PVT measurement

CCCCCl [1-chlorobutane] + O=C=O
mass density [kg/m3]
Details | x1 = 0.0257 | x1 = 0.03 | x1 = 0.0363 | x1 = 0.04 | x1 = 0.0497
323.15 K | 347 ± 20 | 386 ± 20 | 442 ± 20 | 468 ± 20 | –
328.15 K | 300 ± 20 | 343 ± 20 | 390 ± 20 | 407 ± 20 | 467 ± 20
333.15 K | – | 286 ± 20 | 345 ± 20 | 380 ± 20 | 419 ± 20

Clc1ccccc1 [chlorobenzene] + O=C=O
mass density [kg/m3]
Details | x1 = 0.024 | x1 = 0.0293 | x1 = 0.0352 | x1 = 0.04 | x1 = 0.0482 | x1 = 0.204
323.15 K | 471 ± 20 | 507 ± 20 | – | – | – | 437 ± 20
328.15 K | 441 ± 20 | 481 ± 20 | 516 ± 20 | 534 ± 20 | – | 406 ± 20
333.15 K | 417 ± 20 | 458 ± 20 | 493 ± 20 | 516 ± 20 | 556 ± 20 | 386 ± 20

CCCCCC [hexane] + O=C=O
mass density [kg/m3]
Details | x1 = 0.0373 | x1 = 0.0471 | x1 = 0.052 | x1 = 0.0618
323.15 K | 355 ± 21 | 451 ± 20 | 477 ± 20 | –
328.15 K | 294 ± 21 | 396 ± 20 | 423 ± 20 | 436 ± 20
333.15 K | 249 ± 20 | 343 ± 20 | 378 ± 20 | 392 ± 20

C=Cc1ccccc1 [styrene] + O=C=O
mass density [kg/m3]
Details | x1 = 0.0182 | x1 = 0.0256 | x1 = 0.03 | x1 = 0.0343 | x1 = 0.0393 | x1 = 0.0476
323.15 K | 479 ± 20 | 494 ± 20 | 521 ± 20 | – | – | –
328.15 K | 450 ± 20 | 471 ± 20 | 499 ± 20 | 529 ± 20 | 547 ± 20 | 580 ± 20
333.15 K | 430 ± 20 | 453 ± 20 | 479 ± 20 | 507 ± 20 | 527 ± 20 | 560 ± 20
